# Source: ChEMBL document CHEMBL1144878, “N-(omega-(4-(2-methoxyphenyl)piperazin-1-yl)alkyl)carboxamides as dopamine D2 and D3 receptor ligands” (J Med Chem, 2003)
# Molecular target: T1, D(3) dopamine receptor (Homo sapiens, UniProt P35462)
# Experiment: biochemical
# Target sequence in this assay (P35462 whole entry): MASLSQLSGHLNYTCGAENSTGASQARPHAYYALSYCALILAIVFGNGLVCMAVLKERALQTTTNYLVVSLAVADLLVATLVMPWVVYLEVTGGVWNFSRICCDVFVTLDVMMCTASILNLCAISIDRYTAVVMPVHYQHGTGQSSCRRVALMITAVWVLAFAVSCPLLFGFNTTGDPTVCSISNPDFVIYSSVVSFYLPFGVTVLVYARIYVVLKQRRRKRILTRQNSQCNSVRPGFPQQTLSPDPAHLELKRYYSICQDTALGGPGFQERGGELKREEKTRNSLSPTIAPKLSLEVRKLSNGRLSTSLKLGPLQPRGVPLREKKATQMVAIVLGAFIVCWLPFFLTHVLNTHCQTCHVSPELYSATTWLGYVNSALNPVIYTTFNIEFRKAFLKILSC
# Description: Binding affinity for human dopamine receptor D3 by displacing [125I]iodosulpiride expressed in CHO cells
row,Ki,SMILES
1,140 nM,COc1ccccc1N1CCN(CCCNC(=O)Cc2ccc3ccccc3c2)CC1
2,7.99 nM,COc1ccccc1N1CCN(CCCCNC(=O)c2ccc(C(C)(C)C)cc2)CC1
3,1 nM,COc1ccccc1N1CCN(CCCCNC(=O)c2ccc(C(C)=O)cc2)CC1
4,7.8 nM,COc1ccccc1N1CCN(CCCCNC(=O)c2ccccc2I)CC1
5,23.3 nM,COc1ccccc1N1CCN(CCCCN2C(=O)c3cc4ccccc4cc3C2=O)CC1
6,0.46 nM,COc1ccccc1N1CCN(CCCCNC(=O)/C=C/c2cccc(Cl)c2)CC1
7,320 nM,COc1ccccc1N1CCN(CCCCN2C(=O)C=C(c3ccccc3)C2=O)CC1
8,1.48 nM,COc1ccccc1N1CCN(CCCCNC(=O)c2cc3ccccc3cn2)CC1
9,0.64 nM,COc1ccccc1N1CCN(CCCCNC(=O)/C=C/c2ccsc2)CC1
10,1.28 nM,COc1ccccc1N1CCN(CCCCNC(=O)/C=C/c2ccc(Cl)cc2Cl)CC1
11,0.68 nM,COc1ccccc1N1CCN(CCCCNC(=O)/C=C/c2ccc3ccccc3c2)CC1
12,0.43 nM,COc1ccccc1N1CCN(CCCCNC(=O)/C=C/c2ccc(Br)cc2)CC1
13,6.7 nM,COc1ccccc1N1CCN(CCCCNC(=O)c2sc3ccccc3c2Cl)CC1
14,40 nM,COc1ccccc1N1CCN(Cc2ccc(CNC(=O)c3ccc4ccccc4c3)cc2)CC1
15,0.55 nM,COc1ccccc1N1CCN(CCCCNC(=O)/C=C/c2cccc3c2OCO3)CC1
16,9.2 nM,COc1ccccc1N1CCN(CCCCNC(=O)c2cccc(I)c2)CC1
17,1.31 nM,COc1ccccc1N1CCN(CCCCNC(=O)/C=C/c2ccc(Cl)c(Cl)c2)CC1
18,0.52 nM,COc1ccccc1N1CCN(CCCCNC(=O)/C=C/c2ccccc2Cl)CC1
19,213 nM,COc1ccccc1N1CCN(CCCNC(=O)c2ccccc2I)CC1
20,32 nM,COc1ccccc1N1CCN(CCCCNC(=O)Cc2ccc3ccccc3c2)CC1
21,700 nM,COc1ccccc1N1CCN(C2CC3CC(N4CCN(c5ccccc5OC)CC4)CC3C2)CC1 (stereo not drawn)
22,1.8 nM,COc1ccccc1N1CCN(CCCCNC(=O)c2cc3ccccc3oc2=O)CC1
23,1.2 nM,COc1ccccc1N1CCN(CCCCNC(=O)/C=C/c2cccc(I)c2)CC1
24,0.69 nM,COc1ccccc1N1CCN(CCCCNC(=O)/C=C/c2ccc(F)cc2)CC1
25,300 nM,COc1ccccc1N1CCN(CCCNC(=O)c2cccc(I)c2)CC1
26,0.74 nM,COc1ccccc1N1CCN(CCCCNC(=O)/C=C/c2ccc([N+](=O)[O-])cc2)CC1
27,358 nM,COc1ccccc1N1CCN(C2CC3CC(NC4CC5CC(N6CCN(c7ccccc7OC)CC6)CC5C4)CC3C2)CC1 (stereo not drawn)
28,0.44 nM,COc1ccccc1N1CCN(CCCCNC(=O)/C=C/c2ccc(Cl)cc2)CC1
29,325 nM,COc1ccccc1N1CCN(Cc2ccccc2CNC(=O)/C=C/c2ccccc2)CC1

row,SMILES,Ki
1,COc1ccccc1N1CCN(CCCCNC(=O)/C=C/c2cccnc2)CC1,0.5 nM
2,COc1ccccc1N1CCN(CCCCNC(=O)/C=C/c2ccc(Oc3ccccc3)cc2)CC1,10.1 nM
3,COc1ccccc1N1CCN(CCCCNC(=O)c2ccc3ccccc3n2)CC1,6.6 nM
4,COc1ccccc1N1CCN(CCCCNC(=O)CCc2ccccc2)CC1,4.8 nM
5,COc1ccccc1N1CCN(CCCCNC(=O)c2nccc3ccccc23)CC1,9.62 nM
6,COc1ccccc1N1CCN(CCCCNC(=O)/C=C/c2cccs2)CC1,0.59 nM
7,COc1ccccc1N1CCN(CCCCNC(=O)/C=C/c2ccc(-c3ccccc3)cc2)CC1,16 nM

# Molecular target: D(2) dopamine receptor (Homo sapiens, UniProt P14416)
# Sequence (P14416 whole entry): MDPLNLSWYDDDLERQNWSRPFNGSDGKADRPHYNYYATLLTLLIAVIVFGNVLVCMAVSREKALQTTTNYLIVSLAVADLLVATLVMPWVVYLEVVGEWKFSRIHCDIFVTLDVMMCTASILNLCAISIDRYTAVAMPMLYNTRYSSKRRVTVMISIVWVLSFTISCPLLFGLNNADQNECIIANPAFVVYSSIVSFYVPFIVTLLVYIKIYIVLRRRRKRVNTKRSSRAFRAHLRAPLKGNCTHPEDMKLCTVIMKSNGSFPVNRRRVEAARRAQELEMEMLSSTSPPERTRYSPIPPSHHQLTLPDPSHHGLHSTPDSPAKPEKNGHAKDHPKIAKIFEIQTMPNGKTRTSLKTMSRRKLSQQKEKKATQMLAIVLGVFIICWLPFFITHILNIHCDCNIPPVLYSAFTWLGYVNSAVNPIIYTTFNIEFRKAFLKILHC
# Experiment: biochemical
# Description: Binding affinity for human dopamine receptor D2 by displacing [125I]iodosulpiride expressed in CHO cells
row,Ki,SMILES
1,56 nM,COc1ccccc1N1CCN(CCCNC(=O)Cc2ccc3ccccc3c2)CC1
2,26.5 nM,COc1ccccc1N1CCN(CCCCNC(=O)c2ccc(C(C)(C)C)cc2)CC1
3,17.5 nM,COc1ccccc1N1CCN(CCCCNC(=O)c2ccc(C(C)=O)cc2)CC1
4,15.2 nM,COc1ccccc1N1CCN(CCCCNC(=O)c2ccccc2I)CC1
5,145 nM,COc1ccccc1N1CCN(CCCCN2C(=O)c3cc4ccccc4cc3C2=O)CC1
6,20 nM,COc1ccccc1N1CCN(CCCCNC(=O)/C=C/c2cccc(Cl)c2)CC1
7,330 nM,COc1ccccc1N1CCN(CCCCN2C(=O)C=C(c3ccccc3)C2=O)CC1
8,27.5 nM,COc1ccccc1N1CCN(CCCCNC(=O)c2cc3ccccc3cn2)CC1
9,13 nM,COc1ccccc1N1CCN(CCCCNC(=O)/C=C/c2ccsc2)CC1
10,21 nM,COc1ccccc1N1CCN(CCCCNC(=O)/C=C/c2ccc(Cl)cc2Cl)CC1
11,32 nM,COc1ccccc1N1CCN(CCCCNC(=O)/C=C/c2ccc3ccccc3c2)CC1
12,23.7 nM,COc1ccccc1N1CCN(CCCCNC(=O)/C=C/c2ccc(Br)cc2)CC1
13,71.9 nM,COc1ccccc1N1CCN(CCCCNC(=O)c2sc3ccccc3c2Cl)CC1
14,200 nM,COc1ccccc1N1CCN(Cc2ccc(CNC(=O)c3ccc4ccccc4c3)cc2)CC1
15,8 nM,COc1ccccc1N1CCN(CCCCNC(=O)/C=C/c2cccc3c2OCO3)CC1
16,68 nM,COc1ccccc1N1CCN(CCCCNC(=O)c2cccc(I)c2)CC1
17,23 nM,COc1ccccc1N1CCN(CCCCNC(=O)/C=C/c2ccc(Cl)c(Cl)c2)CC1
18,15 nM,COc1ccccc1N1CCN(CCCCNC(=O)/C=C/c2ccccc2Cl)CC1
19,126 nM,COc1ccccc1N1CCN(CCCNC(=O)c2ccccc2I)CC1
20,35 nM,COc1ccccc1N1CCN(CCCCNC(=O)Cc2ccc3ccccc3c2)CC1
21,630 nM,COc1ccccc1N1CCN(C2CC3CC(N4CCN(c5ccccc5OC)CC4)CC3C2)CC1 (stereo not drawn)
22,23 nM,COc1ccccc1N1CCN(CCCCNC(=O)c2cc3ccccc3oc2=O)CC1
23,161 nM,COc1ccccc1N1CCN(CCCCNC(=O)/C=C/c2cccc(I)c2)CC1
24,20.7 nM,COc1ccccc1N1CCN(CCCCNC(=O)/C=C/c2ccc(F)cc2)CC1
25,235 nM,COc1ccccc1N1CCN(CCCNC(=O)c2cccc(I)c2)CC1
26,14 nM,COc1ccccc1N1CCN(CCCCNC(=O)/C=C/c2ccc([N+](=O)[O-])cc2)CC1
27,103 nM,COc1ccccc1N1CCN(C2CC3CC(NC4CC5CC(N6CCN(c7ccccc7OC)CC6)CC5C4)CC3C2)CC1 (stereo not drawn)
28,22.6 nM,COc1ccccc1N1CCN(CCCCNC(=O)/C=C/c2ccc(Cl)cc2)CC1
29,18 nM,COc1ccccc1N1CCN(Cc2ccccc2CNC(=O)/C=C/c2ccccc2)CC1

row,SMILES,Ki
1,COc1ccccc1N1CCN(CCCCNC(=O)/C=C/c2cccnc2)CC1,14.5 nM
2,COc1ccccc1N1CCN(CCCCNC(=O)/C=C/c2ccc(Oc3ccccc3)cc2)CC1,65.2 nM
3,COc1ccccc1N1CCN(CCCCNC(=O)CCc2ccccc2)CC1,48.7 nM
4,COc1ccccc1N1CCN(CCCCNC(=O)c2nccc3ccccc23)CC1,20.9 nM
5,COc1ccccc1N1CCN(CCCCNC(=O)/C=C/c2cccs2)CC1,9.5 nM
6,COc1ccccc1N1CCN(CCCCNC(=O)/C=C/c2ccc(-c3ccccc3)cc2)CC1,37 nM

# Molecular target: T1, D(3) dopamine receptor
# Experiment: Effective concentration for Dopamine receptor D3 was determined
# Format: functional
# Target sequence in this assay (P35462 whole entry, looked up): as the sequence (P35462 whole entry) above
row,EC50,SMILES
1,2.5 nM,COc1ccccc1N1CCN(CCCCNC(=O)c2cc3ccccc3cn2)CC1
2,10 nM,COc1ccccc1N1CCN(CCCCNC(=O)/C=C/c2ccc(Cl)cc2)CC1
